Measurements taken from patent publication US12102607B2, “C5aR inhibitors for use in the treatment of chemotherapy-induced iatrogenic pain” (Dompe' Farmaceutici S.P.A., priority 2017, dated 2024).

Key:
[1] = test system: paclitaxel-induced mechanical allodynia in male Balb/C mice; assay: Paclitaxel-induced mechanical allodynia, Dynamic Plantar Aesthesiometer, DF3966A; assay type: in vivo; details: 30 mg/kg/os twice daily day 1 to 14; days 3, 5, 7, 10 and 14
Description: (§1) For the experiments with DF3966A, animals were housed in the animal care facility of the Department of Pharmacy of the University of Naples, Italy, in a room with controlled temperature (22±1° C.), humidity (60±10%) and light (12 h per day); food and water were available ad libitum. All behavioural tests were performed between 9:00 AM and 5:00 PM, and the animals were used only once. Animal care and manipulations were conducted in conformity with International and National law and policies (EU Directive 2010/63/EU for animal experiments, ARRIVE guidelines and the Basel declaration including the 3R concept). The procedure reported here were approved by the Institutional Committee on the Ethics of Animal Experiments (CVS) of the University of Naples Federico II and by Ministero della Salute under protocol n. 2014-00884607.
(§2) The protocol used was performed according POLOMANO et al., 2001, adapted to mice. The animals received paclitaxel 4 mg/kg intraperitoneally (i.p.) for four alternate days (days 1, 3, 5, and 7). During treatment period, mechanical and cold allodynia were measured 4 hours after the injection of paclitaxel.
DF3966A was administrated 30 mg/kg/os from 1st at 14th day (twice daily; 8.00 am and 20.00 pm). […]
In DF3966A experiments, sensitivity to tactile stimulation was measured using the Dynamic Plantar Aesthesiometer (DPA, Ugo Basile, Italy). […]

[2] = test system: paclitaxel-induced cold allodynia in male Balb/C mice; assay: Paclitaxel-induced cold allodynia, DF3966A; assay type: in vivo; details: 30 mg/kg/os twice daily day 1 to 14; days 3, 5, 7, 10 and 14
Description: as §1
as §2, with “paclitaxel. […]” for “paclitaxel.”
In the same apparatus of von Frey test, and nearly 15 minutes after the mechanical test, was performed the acetone test. […] All movements as licking, flinching or lifting of paw were recorded with a chronometer in a total testing time of 2 minutes.

SMILES: C[C@H](c1ccc(Nc2nc(C(F)(F)F)cs2)cc1)c1nnn[nH]1 [DF3966A, 1-N-[4-[(1R)-1-(1H-tetrazol-5-yl)ethyl]phenyl}-4-(trifluoromethyl)-11,3-thiazol-2-amine]
- mechanical allodynia vs vehicle control animals [1]: significant reduction of mechanical allodynia
- cold allodynia vs vehicle control animals [2]: significant reduction of cold allodynia
